Test results published in patent publication US20050053625A1, “Method of treating viral infections” (priority 2001, published 2005).

Assays:
WHV = details: cited from earlier work
HCV = details: cited from earlier work
HBV [1] = details: chronic HBV patients; cited from earlier work
HBV [2] = test: Secretion of HBV viral particles from Hep G2.2.15 cells (Proteinase K/DNase method); type: cell-based, Hepatitis B virus; details: 4.5 mM, 7 days, Hep G2 2.2.15 cells, FIG. 3
Method: Virus secretion into the media was detected by a method that would differentiate between enveloped and un-enveloped DNA. Glucosidase inhibitors reduce the secretion of enveloped virus. Enveloped virus is resistant to Proteinase K/Dnase treatment; un-enveloped virus is not. (+) or (−) indicates the addition of DNase. See text for more details. From left to right: Untreated; 3TC (3.5 μM); […] (4.5 mM).
Inhibition of the ER a-glucosidases inhibits the secretion of enveloped HBV. The first glycan processing events are the removal of the terminal glucose residues in the ER by α-glucosidase I and II (FIG. 2). The α-glucosidase inhibitor N-butyldeoxynojirimycin (NB-DNJ) has been used to study the role of glucose processing in several proteins including human immunodeficiency virus (HIV-1) gp120 (Fisher et al., 1995) and the enzyme tyrosinase which is involved in melanin biosynthesis (Petrescu et al., 1996). […] Hep G2 2.2.15 cells were either left untreated or treated with 3TC (3.5 μM) or the glucosidase inhibitor NB-DNJ (4.5 mM) and 7 days latter the amount of enveloped virus detected in the culture medium by a method that would differentiate between enveloped and un-enveloped virus (Wei et al., 1997). This method realizes upon the resistance of enveloped HBV to limited Proteinse K treatment (Wei et al., 1997). […]

glucosidase = test: Glucosidase / glycan processing inhibition in cells; type: cell-based
HBV M protein = type: cell-based; details: for secretion of the M protein: indicated concentrations, three days, FIG. 4
Method: Hep G2 cells were transfected with an M only expression vector and the next day the cells divided equally into 6 well trays. Compound was added one day latter at the indicated concentrations and the media changed every two days. The presence of sub-viral particles in the medium was detected via the Abbott Diagnostics Auszyme Monoclonal Diagnostic Kit as per manufacture's directions. For Graph: Y-axis is the OD at 492. X-axis indicates the compounds or cells used in the assay.
Hep G2 cells transfected with the HBV M expression vector were treated with the glucosidase inhibitor NB-DNJ (4.5 mM and 6 days latter the amount of M protein associated with the culture medium (secreted) and the cells (retained) determined by ELISA. See text for more details. For graph: x-axis, Drug treatment and location of protein; for y-axis, % of HBV M protein as compared to untreated
Hep G2 cells were transfected with the M only expression vector and seeded as daughter flasks into 6 well trays. Following 4 days of treatment of glucosidase inhibitor (NB-DNJ (4.5 mM)), drug was either removed (in samples labels as —R) or left on as a control. Day 0 is the time in which drug was removed. […] Day 3 and Day 5 are days after drug removal. For Graph: Y-axis is the OD at 492. X-axis indicates the compounds or cells used in the assay. UN=untreated sample; Un-R is the untreated rebound sample; NB=N-butyl-DNJ; NB-R=N-butyl-DNJ rebound sample.
HBV M protein secretion is sensitive to glucosidase inhibition. Our previous work has determined that the secretion of HBV sub-viral particles containing the M protein was sensitive to glucosidase inhibition. (Mehta et al., 1997). That is, when Hep G2 2.215 cells were treated with the glucosidase inhibitor NB-DNJ, purified sub-viral particles appeared to lack the M protein. However, it was unclear if this was the result of the M protein's sensitivity to glucosidase inhibition or required some other viral factor. To test this hypothesis, an expression vector (pCMV-MS^−X) directs the expression of HBV M, but no other viral protein, was created. This “M only” expression vector was then used to determine if the M protein itself, in the absence of other viral functions, was sensitive to glucosidase inhibition. In addition, an expression vector, unable to express “M”, but able to express “S” was made on the same plasmid backbone as the “M” only vector, as was used as a control (pCMV-M^−SX). For these studies three imino sugars were used: N-butyl-DNJ, N-nonyl-DNJ and N-nonyl-DGJ. N-butyl-DNJ is our standard glucosidase inhibitor and has been used by several labs for over 10 years (Carlson et al.,1995, Block et al., 1994). […] Briefly, Hep G2 cells were transfected with the expression vectors pCMV HBV MS^−X and pCMV HBV M^−SX and subsequently seeded into fresh 6 well trays. The transfected cells were treated with the indicated concentrations of NB-DNJ, NN-DNJ or NN-DGJ (as a negative control) and three days latter the media analyzed for the presence of the HBV M or HBV S protein as described in Mehta et al, 2001. […] Fore example, concentrations of NN-DNJ which have no impact upon glycan inhibition, as determined by glycan analysis or α-1-acid-glycoprotein secretion, had no effect upon HBV M protein secretion (data not shown). In contrast to the effect of the glucosidase inhibitors on M protein secretion, the secretion of the HBV S protein was insensitive to either NB-DNJ or NN-DNJ providing further proof that the S protein is insensitive to glucosidase inhibition (data not shown; Block et al., 1994, Mehta et al., 1997, Werr & Prange, 1998). To determine if the secretion of the HBV M protein was prevented by another non-glucosidase mechanism, other compounds with the same alkyl side chain (tail) but altered imino sugar head groups, were synthesized. For example, NN-DGJ has the same chain length as NN-DNJ but is not a glucosidase inhibitor. […]

[3] = test system: bovine viral diarrhea virus (BVDV); details: comparison of N-butyl and N-nonyl DNJ; U.S. Pat. No. 6,465,487; cited from earlier work
HIV = details: relative to cells not exposed; cited from earlier work
HBV [4] = details: cited from earlier work
[5] = test system: bovine viral diarrhea virus (BVDV); test: BVDV in mammalian cells in tissue culture; type: cell-based
Excerpt: We have discovered that cytotoxicity resulting from exposure of mammalian cells in tissue culture to bovine viral diarrhea virus (BVDV) is prevented by addition of a glucosidase inhibitor to the tissue culture medium. The glucosidase inhibitors useful according to the present invention include, but are not limited to a derivative of 1,5-dideoxy-1,5-imino-D-glucitol (DNJ), in particular, N-butyl-DNJ (NBDNJ). […] Because BVDV is an accepted tissue culture model of hepatitis C virus (HCV) (Henzler, H.-J. and K. Kaiser (1998) Nature Biotech 16:1077-1078), the compositions and methods described herein for inhibiting morphogenesis of BVDV are also useful for inhibiting morphogenesis of HCV.
The substituents on the basic 1,5-dideoxy-1,5-imino-D-glucitol can influence the potency of the compound as an antiviral agent and additionally can preferentially target the molecule to one organ rather than another. […] Methods for comparing the potencies of various substituted compounds are provided in Example 1. […] Methods for determining preferential targeting properties of variously substituted DNJs is provided in Example 8 and FIG. 8 in U.S. Pat. No. 6,465,487.

Cc1cn([C@H]2O[C@@H](CO)[C@H](O)[C@H]2F)c(=O)[nH]c1=O [L-FMAU, 1-(2-Fluro-5-Methy-B-L-Arabinofuranosyl)-Uracil]
decrease in the amount of serum WHsAg (WHV; long term treatment): 10 fold | immune responses developed (WHV; woodchucks, drug alone): limited cellular and humoral immune responses

Alpha-interferon
patients with long-term improvement (HCV): 5% | treated patients achieving certain serological milestones (HBV [1]): 7-40%

OC[C@H]1NC[C@H](O)[C@@H](O)[C@@H]1O [DNJ, 1,5-dideoxy-1,5-imino-D-glucitol]
secretion of enveloped virus versus un-enveloped virus (HBV [2]): inhibits the secretion of enveloped virus more effectively than un-enveloped virus

CCCCCCCCCN1C[C@H](O)[C@@H](O)[C@@H](O)[C@H]1CO [NN-DGJ, reference compound]
glucosidase inhibition (glucosidase; negative control): does not inhibit glucosidase | secretion of the M protein (HBV M protein): but not NN-DGJ which does not inhibit glucosidase, reduces the amount of M detected in the medium

CCCCN1C[C@H](O)[C@@H](O)[C@H](O)[C@H]1CO [NB-DNJ, N-butyl-1,5-dideoxy-1,5-imino-D-glucitol]
potency in inhibiting the intracellular production of BVDV virus [3]: less potent | time to return of glucosidase enzyme function after removal of inhibitor (glucosidase; not shown or Tan et al, 1994): less than 3 hours | infectivity of virus particles released from HIV-infected cells (HIV): greatly reduced | secretion of HBV viral particles (HBV [4]; Hep G2.2.15 cells): prevents the secretion of HBV viral particles | egress of subviral particles (HBV [4]; stable transfected HepG2 cells): does not prevent egress | egress of the mature HBV virion (HBV [4]; stable transfected HepG2 cells): prevents egress | amount of M protein in the culture medium after 4 days of treatment (HBV M protein; 4.5 mM, 4 days, FIG. 6): substantial decrease | HBV M protein associated with the cells (retained) (HBV M protein; 4.5 mM, 6 days, ELISA, FIG. 5): retention of the HBV M protein | HBV M protein associated with the culture medium (secreted) (HBV M protein; 4.5 mM, 6 days, ELISA, FIG. 5): reduction in the amount of HBV M protein associated with the culture medium | level of M protein in the culture medium after compound removal (HBV M protein; after 4 days treatment, drug removed, FIG. 6): remained depressed until the 5th day | secretion of the M protein (HBV M protein): prevented the secretion of the M protein | M protein secretion at lower concentrations (HBV M protein; lower concentrations, which inhibit lower levels of glucosidase): able to inhibit M protein secretion | effect on cell number or viability (HBV M protein; sustained reduction experiment, data not shown): not due to an effect on cell number or viability | toxicity toward host cells ([5]; conditions inhibiting BVDV-induced cytotoxicity): little, if any, toxicity | BVDV-induced cytotoxicity ([5]; tissue culture): inhibition of BVDV-induced cytotoxicity was achieved
